Entries after “also recorded” stand apart in the source; their conditions may differ. Read-outs that look alike come from different tables or passages of the source.
Key:
p53:Mdm2 interaction = conditions: read-out: IC50, fluorescence polarization assay; cited from earlier work
Mdm4:p53 [1] = molecular target: T1, Mdm4:p53 (Homo sapiens, UniProt O15151); assay: NanoBIT Mdm4:p53 PPI assay (transiently transfected CHO-K1 cells); assay type: cell-based; conditions: NanoBIT Mdm4:p53 (IC50, µM), small molecules, 10% (v/v) FCS
T1 sequence (O15151 1-490): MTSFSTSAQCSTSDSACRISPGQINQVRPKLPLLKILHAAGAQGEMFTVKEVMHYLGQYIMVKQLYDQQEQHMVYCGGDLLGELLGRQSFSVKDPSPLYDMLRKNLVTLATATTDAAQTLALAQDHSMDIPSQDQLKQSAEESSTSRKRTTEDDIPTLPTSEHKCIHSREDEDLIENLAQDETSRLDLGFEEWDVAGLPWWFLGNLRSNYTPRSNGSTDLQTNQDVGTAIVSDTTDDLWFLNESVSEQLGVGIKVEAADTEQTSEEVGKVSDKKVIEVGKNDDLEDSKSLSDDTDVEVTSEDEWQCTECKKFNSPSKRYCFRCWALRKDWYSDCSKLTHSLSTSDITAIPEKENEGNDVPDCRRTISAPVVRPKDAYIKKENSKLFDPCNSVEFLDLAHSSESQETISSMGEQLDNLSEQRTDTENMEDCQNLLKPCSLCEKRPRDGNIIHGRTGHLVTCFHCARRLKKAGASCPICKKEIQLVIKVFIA
Protocol: When LgBiT and SmBiT are optimally fused to two interacting proteins, in this case full-length Mdm2 and full-length p53, they will be brought sufficiently close to each other that they will reform the active luciferase and generate a luminescence signal.
For transient transfection experiments, 24 hours prior to transfection CHO cells were seeded at a cell density of 300,000 or 1200,000 cells respectively per well of a 6 well plate (ThermoFisher Scientific). […] After a 24 hour incubation, medium was removed and cells were washed with PBS saline. Transfected CHO-1 cells were trypsinised and re-suspended in Opti-MEM media with 0% FCS. […] 25 μl of a 20-fold dilution of Nano-Glo live cell substrate (Promega) in Nano-Glo dilution buffer (PROMEGA) was added to each well and the plate shaken for 1 min at 22 °C and luminescence assessed after additional 50 minutes as described previously[43]. All luminescence assay were carried out in triplicate and luciferase activity for each well was measured by Envision Multilabel plate reader (PerkinElmer). […]
Curve-fitting was carried out using Prism 4.0 (GraphPad). a was always constrained to the experimental value determined using the 1% DMSO (v/v) experimental control. After curve fitting the value determined for d was then verified to be in close agreement with the plateau of the titration.

Mdm4:p53 [2] = molecular target: T2, Mdm4:p53 (Homo sapiens, UniProt O15151); assay: Bimodal FLUOPPI Mdm4:p53 PPI assay (pre-mixed stably transfected CHO-K1 cells, high-content imaging); assay type: cell-based; conditions: bimodal system; both treatment time points
T2 construct: the p53 (1–70) and Mdm4 (1–112) PPI was then cloned and fused to the FP and ASH tags
T2 sequence (O15151 1-112): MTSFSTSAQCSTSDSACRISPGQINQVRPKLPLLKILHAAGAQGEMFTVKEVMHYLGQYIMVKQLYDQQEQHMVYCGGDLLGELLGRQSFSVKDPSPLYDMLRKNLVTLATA
Protocol: Separate CHO-K1 lines stably expressing either Ash-p53:AG-Mdm2 or Ash-p53:MR-Mdm4 Fluoppi PPI pairs were established and maintained independently. To enable bimodal measurement both cell lines were pre-mixed in equal proportions and then used to seed 96 well plates for compound analysis. […] Plates were incubated overnight and cells were treated with PPI modulating drugs. […] Cells were also processed using a nuclear morphology filter. […] A minimum number of 500 foci were used to determine this value. Dose curves for each compound were then derived and used to calculate a corresponding IC50 value.
Two stable cell lines, 1A7-1 and 1B7-11 were mixed equally and seeded into poly-D-lysine black-wall 96-well plates (Corning) at a density of 20,000 cells/well and incubated for 24 hours at 37 °C in a 5% CO2 atmosphere. […] Green (AG), red (MR) and blue (Hoechst33342) or far-red (Draq5) fluorescence images were used to monitor p53-MDM2, p53-MDM4 and nuclei, respectively. […] To remove dead cells from analysis, only cells with a “nuclei roundness” score of more than 0.75 were counted. FLUOPPI values were calculated by dividing the total green or red fluorescence intensity of puncta by the number of AG-positive nuclei or MR-positive nuclei, respectively. […]

CHO-K1 cells [3] = assay: LDH release assay (CytoTox); assay type: cell-based, Chinese hamster; conditions: Cricetulus griseus
CHO-K1 cells [4] = tested on: CHO-K1 cells
CHO-K1 cells [5] = assay: cells; conditions: Cricetulus griseus, read-out: Viability (IC50, µM)
ASH-p53:AG-Mdm2 = molecular target: T3, ASH-p53:AG-Mdm2 (Homo sapiens, UniProt Q00987); assay: Reversibility of FLUOPPI foci, transiently transfected ASH-p53:AG-Mdm2 CHO-K1 cells; assay type: cell-based
T3 construct: all eight possible combinations of p53 (1–70) and Mdm2 (1–119) were fused
Protocol: All 8 possible interactions pairs for the Mdm2:p53 PPI were then co-expressed in CHO-K1 cells and then analysed for foci formation 24 hours post-transfection (Fig. 1B). To eliminate the possibility of non-specific interactions between the expression constructs giving rise to foci formation, negative control experiments were performed between the AG fluorescent tagged constructs and the non-fluorescent oligomerizing tag (ASH) by itself (Fig. 1C).
24 hours prior to transfection CHO-K1 cells were seeded at a cell density of 800,000 cells respectively per well of a 6 well plate (ThermoFisher Scientific). […] After a 24 hour incubation, medium was removed and cells were washed with PBS saline. Transfected CHO-K1 cells were trypsinised and re-suspended in Nutrient Mixture F-12 Ham (Ham's F-12) media (Sigma-Aldrich) supplemented with 10% FCS. Cells were then spun down at 1000 rpm for 5 minutes at room temperature. Supernatant was then discarded and cells re-suspended to a density of 200,000 cells per ml in Ham's F-12 media supplemented with 10% FCS. 100 μl of the resulting cell suspension was added to the wells of a black clear bottom 96-well plate. After a 24 hours incubation, the cell medium was replaced with fresh Ham's F-12 medium containing the indicated concentration of small molecule or stapled peptide and the stated FCS concentration. Final concentration of DMSO was 1% (v/v).

[6] = CHO-K1, 1 h, read-out: LDH Release (EC50, µM)

T3 sequence (Q00987 1-119, looked up): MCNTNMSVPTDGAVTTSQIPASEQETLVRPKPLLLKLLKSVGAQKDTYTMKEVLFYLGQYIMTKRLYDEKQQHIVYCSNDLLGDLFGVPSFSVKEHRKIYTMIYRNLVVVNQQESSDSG

SMILES	IC50 (p53:Mdm2 interaction)	IC50 (Mdm4:p53 [1]; 1 hour treatment)	IC50 (Mdm4:p53 [1]; 24 hour treatment)	inhibition of the p53:Mdm4 FLUOPPI PPI (in words) (Mdm4:p53 [2])	EC50 (CHO-K1 cells [3]; [6])	EC50 (CHO-K1 cells [3]; CHO-K1, 4 h, read-out: Normalized LDH release, value printed beside curve)	effect on cellular viability (in words) (CHO-K1 cells [4])	concentration with significant effects on cellular viability (arbitrarily defined as >25%) (CHO-K1 cells [4]; Chinese hamster)	IC50 (CHO-K1 cells [5]; CHO-K1, 1 h)	IC50 (CHO-K1 cells [5]; CHO-K1, 24 h)	disruption of Mdm2:p53 fluorescent foci (in words) (ASH-p53:AG-Mdm2)
CC(C)(C)C[C@@H]1N[C@@H](C(=O)N[C@H]2CC[C@H](O)CC2)[C@H](c2cccc(Cl)c2F)[C@]12C(=O)Nc1cc(Cl)ccc12 [MI-773]	0.00088 µM	10.2 ± 1.6 µM	2.7 µM	negligible effect	30 ± 6.2 µM	30.6 ± 6.2 µM	–	–	–	–	–
COc1ccc(C2=N[C@@H](c3ccc(Cl)cc3)[C@@H](c3ccc(Cl)cc3)N2C(=O)N2CCNC(=O)C2)c(OC(C)C)c1 [Nutlin 3A]	–	–	–	–	35.7 ± 6.2 µM	–	significant decreases in cellular viability	> 25 µM	34 ± 7 µM	28.5 µM	disrupted; also recorded: disruption of the fluorescent foci

— PMC6884555, “Simultaneous measurement of p53:Mdm2 and p53:Mdm4 protein-protein interactions in whole cells using fluorescence labelled foci” (Scientific Reports, 2019)
